Structures are written as SMILES. Some results are limits rather than exact numbers.

Common to all, as to assay: Broth microdilution MIC, Example 7 (NCL812 and analogues)
In general terms: In broth dilution the organism is exposed to a series of concentrations in liquid medium.

For one test, the system named is VRE. It counts as cell-based, Enterococcus spp. Summed up:
(§1)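 Isolates were tested in duplicate, with a third run if replicates differed by more than one two-fold dilution; inoculum purity was checked on sheep blood agar.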

The test system of another test is Escherichia coli. It is filed as cell-based. Particulars: E. coli, 24 hours.
The subject of a further test is MRSA. It is filed as cell-based, Staphylococcus aureus. Summed up:
as §1

A further test relates to Pseudomonas aeruginosa. It is filed as cell-based. Particulars: P. aeruginosa, 24 hours.
Where [1] appears, read: VRE 1, 24 hours, duplicate lines per compound.
The mark [2] stands for this setting: VRE 2, 24 hours, duplicate lines per compound.
Setting [3] is: MRSA 1, 24 hours, duplicate lines per compound.
Where [4] appears, read: MRSA 2, 24 hours, duplicate lines per compound.

In the case of `Nc1nc(N/N=C/c2ccc(F)c(F)c2)cc(N/N=C/c2ccc(F)c(F)c2)n1` [NCL222], the “MIC (μg/ml) at 24 hours, VRE 1” value in the test with VRE (VRE 1, 24 hours) is above 128 µg/mL. For the same compound, the “MIC (μg/ml) at 24 hours, VRE 2” value with VRE (VRE 2, 24 hours) is above 128 µg/mL. The “MIC (μg/ml) at 24 hours, E. coli” value in the test with Escherichia coli was above 128 µg/mL. Besides, the “MIC (μg/ml) at 24 hours, MRSA 1” value against MRSA (MRSA 1, 24 hours) is above 128 µg/mL. In addition, the “MIC (μg/ml) at 24 hours, MRSA 2” value against MRSA (MRSA 2, 24 hours) is above 128 µg/mL. Besides, the “MIC (μg/ml) at 24 hours, P. aeruginosa” value with Pseudomonas aeruginosa is above 128 µg/mL.

Turning to `CC(=O)Nc1ccc(/C=N/Nc2cc(N/N=C/c3ccc(NC(C)=O)cc3)nc(N)n2)cc1` [NCL223], the “MIC (μg/ml) at 24 hours, VRE 1” value in the test on VRE (VRE 1, 24 hours) is above 128 µg/mL. Also, the “MIC (μg/ml) at 24 hours, VRE 2” value against VRE (VRE 2, 24 hours) is above 128 µg/mL. In addition, in the test with Escherichia coli, the “MIC (μg/ml) at 24 hours, E. coli” value was above 128 µg/mL. Besides, in the test on MRSA (MRSA 1, 24 hours), the “MIC (μg/ml) at 24 hours, MRSA 1” value was above 128 µg/mL. Further, in the test with MRSA (MRSA 2, 24 hours), the “MIC (μg/ml) at 24 hours, MRSA 2” value is above 128 µg/mL. Moreover, in the test with Pseudomonas aeruginosa, the “MIC (μg/ml) at 24 hours, P. aeruginosa” value is above 128 µg/mL.

Regarding `CCOC(=O)N(/N=C/c1ccc(Cl)cc1)C(N)=N/N=C/c1ccc(Cl)cc1` [NCL224], in the test on VRE (VRE 1, 24 hours), the “MIC (μg/ml) at 24 hours, VRE 1” value is above 128 µg/mL. Also, the “MIC (μg/ml) at 24 hours, VRE 2” value with VRE (VRE 2, 24 hours) is above 128 µg/mL. For the same compound, the “MIC (μg/ml) at 24 hours, E. coli” value against Escherichia coli was above 128 µg/mL. Besides, in the test with MRSA (MRSA 1, 24 hours), the “MIC (μg/ml) at 24 hours, MRSA 1” value was above 128 µg/mL. Moreover, in the test with MRSA (MRSA 2, 24 hours), the “MIC (μg/ml) at 24 hours, MRSA 2” value is above 128 µg/mL. The “MIC (μg/ml) at 24 hours, P. aeruginosa” value in the test with Pseudomonas aeruginosa is above 128 µg/mL.

Regarding `CC(C)COC(=O)N(N=Cc1ccc(Cl)cc1)C(N)=NN=Cc1ccc(Cl)cc1` [NCL225], the “MIC (μg/ml) at 24 hours, VRE 1” value against VRE (VRE 1, 24 hours) was above 128 µg/mL. Moreover, the “MIC (μg/ml) at 24 hours, VRE 2” value against VRE (VRE 2, 24 hours) was above 128 µg/mL. Besides, the “MIC (μg/ml) at 24 hours, E. coli” value against Escherichia coli was above 128 µg/mL. The “MIC (μg/ml) at 24 hours, MRSA 1” value in the test on MRSA (MRSA 1, 24 hours) was above 128 µg/mL. For the same compound, the “MIC (μg/ml) at 24 hours, MRSA 2” value in the test with MRSA (MRSA 2, 24 hours) was above 128 µg/mL. Besides, in the test with Pseudomonas aeruginosa, the “MIC (μg/ml) at 24 hours, P. aeruginosa” value was above 128 µg/mL.

For `CCNC(=O)N(/N=C/c1ccc(Cl)cc1)C(N)=N/N=C/c1ccc(Cl)cc1` [NCL226], the “MIC (μg/ml) at 24 hours, VRE 1” value against VRE (VRE 1, 24 hours) is above 128 µg/mL. Besides, in the test with VRE (VRE 2, 24 hours), the “MIC (μg/ml) at 24 hours, VRE 2” value is above 128 µg/mL. Further, in the test with Escherichia coli, the “MIC (μg/ml) at 24 hours, E. coli” value is above 128 µg/mL. Further, the “MIC (μg/ml) at 24 hours, MRSA 1” value with MRSA (MRSA 1, 24 hours) was above 128 µg/mL. Further, the “MIC (μg/ml) at 24 hours, MRSA 2” value with MRSA (MRSA 2, 24 hours) is above 128 µg/mL. The “MIC (μg/ml) at 24 hours, P. aeruginosa” value in the test with Pseudomonas aeruginosa was above 128 µg/mL.

Take `N=C(N/N=C/c1ccc(Cl)cc1)N(/N=C/c1ccc(Cl)cc1)C(=O)NCc1ccccc1` [NCL227]: in the test on VRE (VRE 1, 24 hours), the “MIC (μg/ml) at 24 hours, VRE 1” value was above 128 µg/mL. Further, in the test on VRE (VRE 2, 24 hours), the “MIC (μg/ml) at 24 hours, VRE 2” value was above 128 µg/mL. In addition, the “MIC (μg/ml) at 24 hours, E. coli” value against Escherichia coli was above 128 µg/mL. Moreover, the “MIC (μg/ml) at 24 hours, MRSA 1” value with MRSA (MRSA 1, 24 hours) is above 128 µg/mL. In addition, the “MIC (μg/ml) at 24 hours, MRSA 2” value in the test on MRSA (MRSA 2, 24 hours) was above 128 µg/mL. In addition, the “MIC (μg/ml) at 24 hours, P. aeruginosa” value against Pseudomonas aeruginosa is above 128 µg/mL.

As to `CCCCCCNC(=O)N(N=Cc1ccc(Cl)cc1)C(N)=NN=Cc1ccc(Cl)cc1` [NCL228], the “MIC (μg/ml) at 24 hours, VRE 1” value against VRE (VRE 1, 24 hours) was above 128 µg/mL. Besides, the “MIC (μg/ml) at 24 hours, VRE 2” value with VRE (VRE 2, 24 hours) is above 128 µg/mL. In addition, in the test on Escherichia coli, the “MIC (μg/ml) at 24 hours, E. coli” value was above 128 µg/mL. Also, in the test on MRSA (MRSA 1, 24 hours), the “MIC (μg/ml) at 24 hours, MRSA 1” value is above 128 µg/mL. Besides, the “MIC (μg/ml) at 24 hours, MRSA 2” value in the test on MRSA (MRSA 2, 24 hours) was above 128 µg/mL. Also, the “MIC (μg/ml) at 24 hours, P. aeruginosa” value in the test with Pseudomonas aeruginosa was above 128 µg/mL.

In the case of `NC(=N/N=C/c1ccc(Cl)cc1)N(/N=C/c1ccc(Cl)cc1)C(=O)NCc1ccco1` [NCL229], the “MIC (μg/ml) at 24 hours, VRE 1” value against VRE (VRE 1, 24 hours) was above 128 µg/mL. For the same compound, the “MIC (μg/ml) at 24 hours, VRE 2” value in the test with VRE (VRE 2, 24 hours) was above 128 µg/mL. Also, the “MIC (μg/ml) at 24 hours, E. coli” value in the test with Escherichia coli is above 128 µg/mL. Moreover, the “MIC (μg/ml) at 24 hours, MRSA 1” value with MRSA (MRSA 1, 24 hours) is above 128 µg/mL. In the test on MRSA (MRSA 2, 24 hours), the “MIC (μg/ml) at 24 hours, MRSA 2” value is above 128 µg/mL. For the same compound, the “MIC (μg/ml) at 24 hours, P. aeruginosa” value in the test with Pseudomonas aeruginosa is above 128 µg/mL.

As for `COc1ccc(/C=N/Nc2cc(N/N=C/c3ccc(OC)cc3)nc(N)n2)cc1` [NCL230], the “MIC (μg/ml) at 24 hours, VRE 1” value with VRE (VRE 1, 24 hours) was above 128 µg/mL. Besides, the “MIC (μg/ml) at 24 hours, VRE 2” value in the test with VRE (VRE 2, 24 hours) was above 128 µg/mL. The “MIC (μg/ml) at 24 hours, E. coli” value with Escherichia coli was above 128 µg/mL. The “MIC (μg/ml) at 24 hours, MRSA 1” value with MRSA (MRSA 1, 24 hours) is above 128 µg/mL. For the same compound, the “MIC (μg/ml) at 24 hours, MRSA 2” value with MRSA (MRSA 2, 24 hours) was above 128 µg/mL. The “MIC (μg/ml) at 24 hours, P. aeruginosa” value in the test with Pseudomonas aeruginosa was above 128 µg/mL.

Consider `Cc1ccc(/C=N/NC(=N)N/N=C/c2ccc(C)cc2)cc1.Cl` [NCL 038], for which, in the test on VRE (setting [1]), the “MIC (μg/ml) at 24 hours, VRE 1” value worked out at 8 µg/mL. The “MIC (μg/ml) at 24 hours, VRE 2” value in the test with VRE (setting [2]) came out at 8 µg/mL. Further, the “MIC (μg/ml) at 24 hours, E. coli” value against Escherichia coli (duplicate lines per compound) was above 128 µg/mL. The “MIC (μg/ml) at 24 hours, MRSA 1” value in the test with MRSA (setting [3]) came out at 8 µg/mL. Moreover, the “MIC (μg/ml) at 24 hours, MRSA 2” value in the test on MRSA (setting [4]) amounted to 8 µg/mL. Besides, the “MIC (μg/ml) at 24 hours, P. aeruginosa” value in the test on Pseudomonas aeruginosa (duplicate lines per compound) is above 128 µg/mL.

Take `COc1ccc(C=NNC(=N)NN=Cc2ccc(OC)c(OC)c2)cc1OC.Cl` [NCL 115]: in the test with VRE (setting [1]), the “MIC (μg/ml) at 24 hours, VRE 1” value was above 128 µg/mL. In the test with VRE (setting [2]), the “MIC (μg/ml) at 24 hours, VRE 2” value was above 128 µg/mL. Besides, the “MIC (μg/ml) at 24 hours, E. coli” value with Escherichia coli (duplicate lines per compound) is above 128 µg/mL. Moreover, the “MIC (μg/ml) at 24 hours, MRSA 1” value with MRSA (setting [3]) was above 128 µg/mL. In addition, in the test on MRSA (setting [4]), the “MIC (μg/ml) at 24 hours, MRSA 2” value is above 128 µg/mL. Besides, in the test with Pseudomonas aeruginosa (duplicate lines per compound), the “MIC (μg/ml) at 24 hours, P. aeruginosa” value was above 128 µg/mL.

These data come from patent US10253002B2, “Compounds and methods of treating infections” (Neoculi Pty Ltd., priority 2013, dated 2019).
